# Measurements from US20210128457A1 (priority 2019, published 2021).
# Like-named read-outs stand apart in the source and are kept apart here.
# Columns and labels:
# [1] = tested on: cochlear hair cells; experiment: Gentamicin distribution in cochlear hair cells, RWS versus transcanal USM; conditions: stood 3 minutes without ultrasound
# From the text: Because phalloidin binds to the cytoskeletal actin, it is used to mark the location of hair cells. […] Merge column is the overlay of the left two columns, it is more obvious to see the distribution of gentamicin in the cochlea. […] The green dots indicated the uptake of gentamicin in the hair cells.
# [2] = assay type: in vitro ADME
# From the text: In order to understand the effect of ultrasound transcranial administration (behind the ear) to release the drug through the round window membrane (single-membrane), and the effect of ultrasound transcanal administration to release the drug through the eardrum and the round window membrane (two-membranes), 3D-printed material extrusion was used for designing three drug delivery devices:
# M1: single-membrane group (FIGS. 5A to 5C), a dialysis membrane 80 was sandwiched between the donor end 10 (Donor area) and the receiving end 20 (Receptor area) for mimicking the position of the round window membrane.
# M1-20°: single-membrane with tilt group, the round window membrane of the guinea pig's ear was not perpendicular to the ear canal, so the ultrasonic probe originally perpendicular to the donor end 10 was tilted at an angle of about 20 degrees (FIG. 5C) to make the experiment more realistic. That is, after the top of the ultrasonic probe was placed at the surface center of saline in the donor end 10, the angle between the long axis direction of the ultrasonic probe and the long axis direction of the device was about 20 degrees.
# M1+B: The single-membrane transcranial group (FIG. 5D) differed from the single-membrane group in that the skull 90 was placed on top of the donor end 10; and
# M2: two-membranes group (FIGS. 5E to 5F), the dialysis membranes 80 were respectively sandwiched between the donor end 10 and the interval chamber 30 of the device, and between the interval chamber 30 and the receiving end 20, where the donor end 10 simulated the external ear canal, the interval chamber 30 simulated the middle ear cavity, and the receiving end 20 simulated the inner ear.
# The above groups simulated the actual guinea pig's ear structure and the volume in each area. The printing material was polyethylene terephthalate (PETG). A suitable molecular weight (Orange scientific, OrDial D-Clean, MW=1000) was chosen for the dialysis membrane 80 to separate the sample from the tested drug. About 400 μL of saline was injected into the receiving end 20 to simulate the actual inner ear lymph fluid volume of the guinea pig. […] The experiment samples were injected to the donor end 10 of the single-membrane group, the single-membrane transcranial group and the single-membrane with tilt group, and were injected to the interval chamber 30 of the two-membranes group, to mimic the volume of the middle ear cavity in the middle ear cavity of the guinea pigs. The single-membrane group and the two-membranes group were subjected to 3 W/cm^2 ultrasonic waves for 3 times (1 minute each time), while the single-membrane transcranial group blocked by the skull 90 was extended to 3 times (3 minutes each time) to ensure inducing the cavitation. […] In each group, saline in the receiving end 20 before the experiment, saline in the donor end 10 or the interval chamber 30 after the experiment, and saline in the receiving end 20 after the experiment were sampled for detecting fluorescence value.
# [3] = assay type: in vivo, guinea pigs; conditions: guinea pig
# From the text: Pigmented guinea pigs with normal sound reflection (Preyer's reflex) were used. The experimental group was divided into the following four groups:
# The structure of the ear includes an outer ear 110, a middle ear 120, an inner ear 130, a tympanic membrane 140, and a round window membrane 150. The outer ear 110 includes an external ear canal 111, the middle ear 120 includes auditory ossicles 121 and a middle ear cavity 122, and the inner ear 130 includes a cochlea 131. The ultrasonic device 210 was placed in the external ear canal 111, and the ultrasound waves were generated by an ultrasonic device 210. The ultrasound waves were transmitted to the middle ear cavity 122 and induced the cavitation on the microbubbles 220 located in the middle ear cavity 122.
# 3 W/cm^2 ultrasound was administered three times (3 minutes each time) at the mark place, and the solution in the middle ear cavity was replaced every time.
# After the animal experiment (n=4), the animals were sacrificed and the tympanic bullae were taken out. About 10 μL of perilymph fluid was collected and centrifuged. The supernatant was diluted at a ratio of 1:100 for detecting fluorescence value.
# After the animal experiment had finished (n=4), the animals were sacrificed and the tympanic bullae were taken out. About 10 μL of perilymph fluid was collected and centrifuged. The supernatant was diluted at a ratio of 1:100 for detecting fluorescence value.
"gentamicin uptake in hair cells (green fluorescence), second turn and third turn [1]",ratio of permeability USM/RWS ([2]; M1+B single-membrane transcranial group),"relative fluorescence units of saline in the receiving end ([2]; M1+B single-membrane transcranial group, RWS) [RFU]","relative fluorescence units of saline in the receiving end ([2]; M1+B single-membrane transcranial group, USM, 3 W/cm^2, 3 times 3 minutes) [RFU]",ratio of permeability USM/RWS ([2]; M1-20° single-membrane with tilt group),"relative fluorescence units of saline in the receiving end ([2]; M1-20° single-membrane with tilt group, RWS) [RFU]","relative fluorescence units of saline in the receiving end ([2]; M1-20° single-membrane with tilt group, USM) [RFU]",ratio of permeability USM/RWS ([2]; M1 single-membrane group),"relative fluorescence units of saline in the receiving end ([2]; M1 single-membrane group, USM, 3 W/cm^2, 3 times 1 minute) [RFU]","relative fluorescence units of saline in the receiving end ([2]; M1 single-membrane group, round window soaking (RWS)) [RFU]",ratio of permeability USM/RWS ([2]; M2 two-membranes group),"relative fluorescence units of saline in the receiving end ([2]; M2 two-membranes group, RWS) [RFU]","relative fluorescence units of saline in the receiving end ([2]; M2 two-membranes group, USM, 3 W/cm^2, 3 times 1 minute) [RFU]","relative fluorescence units of perilymph fluid ([3]; RWS group A, stood 3 minutes without ultrasound) [RFU]","relative fluorescence units of perilymph fluid ([3]; RWS group B, stood 9 minutes without ultrasound) [RFU]",ratio of permeability transcanal USM/RWS group A [3],ratio of permeability transcranial USM/RWS group B [3],"relative fluorescence units of perilymph fluid ([3]; transcanal group (USM), 3 W/cm^2, 3 times 1 minute) [RFU]","relative fluorescence units of perilymph fluid ([3]; transcranial group (USM), 3 W/cm^2, 3 times 3 minutes) [RFU]",Substance
did not found the dot-like fluorescence,–,–,–,–,–,–,–,–,–,–,–,–,–,–,–,–,–,–,Gentamicin
–,about 3.74 folds,631.5±21.12,2362±64.91,about 5.67 folds,309.7±20.54,1756.3±76.29,about 6.91 folds,2726.3±79.97,394.5±5.3,about 4.77 folds,285.7±7.45,1363.7±56.66,1633.33±72.63,6700±69.74,about 2.83 folds,about 1.5 folds,4206.83±202.93,10113±338.8,biotin-FITC
